# Legend:
# [1] = test system: r(CUG)9 (RNA, repeat) CUGCUGCUGCUGCUGCUGCUGCUGCUG; assay: SPR single cycle kinetics; settings: 25 °C
# [2] = test system: r(CCG)9 (RNA, repeat) CCGCCGCCGCCGCCGCCGCCGCCGCCG; assay: SPR single cycle kinetics; settings: HBS-EP+ buffer, 25 °C
Structure (SMILES),"binding ([1]; HBS-EP+ buffer, 6.3-100 nM, significant response from 6.3 nM, not fitted)",binding ([2]; highest concentration tested 0.1 μM),"K d(app) ([1]; Na+ not printed for the running buffer (HBS-EP+; 500 mM NaCl only for immobilization), apparent, assumed 1:1 binding isotherm, 0.063-1.0 μM) [nM]",binding ([2]; highest concentration tested 1.0 μM)
NCCCNc1nc(NC(=O)OCCCNC(=O)CCNCCC(=O)NCCCOC(=O)Nc2cc3c(-c4ccnc(N5CCNCC5)c4)cccc3c(NCCCN)n2)cc2c(-c3ccnc(N4CCNCC4)c3)cccc12,yes,weak,–,–
NCCCNc1nc(NC(=O)OCCCN)cc2c(-c3ccnc(N4CCNCC4)c3)cccc12,–,–,1200,weak
